Non-standard residues stand in square brackets, D forms with d. Residues, ends and D or L forms follow the SMILES beside them. Nle = CCCC[C@H](N)C(=O)O
Key:
Vif = assay: Steady-state levels of Vif with proteasome inhibition (immuno-blot); type: cell-based, HIV-1; conditions: 293T cells, presence or absence of CFP-APO, 100 μM ALLN 12 hours
Method: 293T cells were maintained in a humidified incubator (5% CO2) at 37° C. in Dulbecco's modified Eagle's medium (DMEM; Invitrogen) supplemented with 10% fetal bovine serum, 100 units/ml penicillin and 100 μg/ml streptomycin (Invitrogen). Qiagen-purified plasmid DNA (Qiagen, Valencia, Calif.) was transfected into 293T cells using Lipofectaminem 2000 lipofection agent (Invitrogen). For Western blot and immunoprecipitation experiments, 293T cells were transfected in either 6 or 12 well plates when the cells were ˜60% confluent. The amount of vector used and the molar ratio of vector for co-transfection experiments are described in the Results and figure legends. When necessary, final DNA amounts were made equal by the addition of pGEM (Promega). For live imaging and immuno-localization, 293T cells were seeded into poly-d-lysine coated 35 mm glass bottom culture dishes and transfected when the cells were ˜50% confluent. […]
(§1) The level of Vif-mediated depletion of APOBEC3G was further determined over a broad range of Vif (pNL-A1):APOBEC3G (pCFP-APO) vector ratios ranging from 1:1 to 1:0.0625, where 1 refers to 130 fmoles of vector. The level of depletion was determined by comparing the steady-state levels of CFP-APO when co-expressed with Vif to the equivalent Δvif control (pNL-A1Δvif). […]

CFP-APO = assay: Vif-mediated depletion of CFP-APO with proteasome inhibition (immuno-blot, confocal microscopy); type: cell-based, human; conditions: for CFP-APO levels in the absence of Vif: 293T cells, pNL-A1Δvif
Method: 293T cells were maintained in a humidified incubator (5% CO2) at 37° C. in Dulbecco's modified Eagle's medium (DMEM; Invitrogen) supplemented with 10% fetal bovine serum, 100 units/ml penicillin and 100 μg/ml streptomycin (Invitrogen). Qiagen-purified plasmid DNA (Qiagen, Valencia, Calif.) was transfected into 293T cells using Lipofectaminem 2000 lipofection agent (Invitrogen). For Western blot and immunoprecipitation experiments, 293T cells were transfected in either 6 or 12 well plates when the cells were ˜60% confluent. The amount of vector used and the molar ratio of vector for co-transfection experiments are described in the Results and figure legends. When necessary, final DNA amounts were made equal by the addition of pGEM (Promega). For live imaging and immuno-localization, 293T cells were seeded into poly-d-lysine coated 35 mm glass bottom culture dishes and transfected when the cells were ˜50% confluent. For proteasome inhibition studies, culture media containing 100 μM of N-Acetyl-Leu-Leu-Nle-CHO (ALLN, Calbiochem, La Jolla, Calif.) or the equivalent volume of DMSO was added to cells 12 hours prior to harvesting or imaging 36 hours post-transfection.
as §1
To prepare total protein lysates, each well of a 6- or 12-well plate was washed once in phosphate buffered saline (PBS, Invitrogen) and then lysed in either 400 or 200 μl, respectively, of Mammalian Protein Extraction Reagent (M-PER, Pierce, Rockford, Ill.) supplemented with 0.5% (v/v) Triton-X 100 (Pierce), 150 mM NaCl, 5 mM EDTA, and a 1/100 (v/v) dilution of a protease inhibitor cocktail for mammalian tissue for 30 minutes at 4° C. with gentle rotation. […] Protein concentration was determined by Dc protein assay (Bio-Rad, Hercules, Calif.). […]

In the case of `CCCC[C@@H](C=O)NC(=O)[C@H](CC(C)C)NC(=O)[C@H](CC(C)C)NC(C)=O` [ALLN, N-Acetyl-Leu-Leu-Nle-CHO] (Ac-Leu-Leu-[Nle]-aldehyde), the “Steady-state levels of Vif” value (Vif) is reported as “elevated the steady-state levels of Vif”, the “CFP-APO levels by confocal microscopy” value (CFP-APO; 293T cells expressing Vif, pNL-A1:pCFP-APO 1:0.25, proteasome inhibition) is reported as “elevated” and the “CFP-APO levels in the absence of Vif” value (CFP-APO; all ratios except 1:0.0625, 100 μM ALLN 12 hours) is reported as “not significantly affected”. For the same molecule, the “CFP-APO levels in the absence of Vif” value (CFP-APO; lowest pCFP-APO input (1:0.0625 ratio), 100 μM ALLN 12 hours) was “modest reduction in expression”.
